Assay results: US20260297081A1, “COMPOUNDS AND METHODS OF TREATING CANCERS” (Cullgen Inc., priority 2023, published 2026)

Target: CDK4 (Homo sapiens, UniProt P11802+Q16531)
Test: CDK4 percentage degradation in Calu-1 cells (Table 6)
Format: cell-based
Set-up: Cells that express cyclin D1-3 and CDK4/6 proteins were treated with heterobifunctional compounds; endogenous in cells; host or cells: Calu-1
Details: 16 hours; for inhibition at 0.04 µM: 40 nM; for inhibition at 0.2 µM: 200 nM
Outline: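 Percentage degradation of Cyclin D1 and CDK4 derived from densitometry of ECL Western blots on lysates of Calu-1 cells. Treatment was 16 h with compound at either 40 nM or 200 nM.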

CDK4, sequence (P11802 2-303 limits assumed): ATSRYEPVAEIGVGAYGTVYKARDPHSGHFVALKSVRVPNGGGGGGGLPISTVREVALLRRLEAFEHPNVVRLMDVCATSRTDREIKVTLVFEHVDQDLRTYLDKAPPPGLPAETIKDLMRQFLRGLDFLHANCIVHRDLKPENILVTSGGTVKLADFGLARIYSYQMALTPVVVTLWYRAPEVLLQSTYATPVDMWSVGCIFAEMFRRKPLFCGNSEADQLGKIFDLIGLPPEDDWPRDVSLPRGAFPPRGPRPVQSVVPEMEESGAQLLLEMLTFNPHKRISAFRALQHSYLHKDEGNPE
CDK4, sequence (P24385 whole entry partner): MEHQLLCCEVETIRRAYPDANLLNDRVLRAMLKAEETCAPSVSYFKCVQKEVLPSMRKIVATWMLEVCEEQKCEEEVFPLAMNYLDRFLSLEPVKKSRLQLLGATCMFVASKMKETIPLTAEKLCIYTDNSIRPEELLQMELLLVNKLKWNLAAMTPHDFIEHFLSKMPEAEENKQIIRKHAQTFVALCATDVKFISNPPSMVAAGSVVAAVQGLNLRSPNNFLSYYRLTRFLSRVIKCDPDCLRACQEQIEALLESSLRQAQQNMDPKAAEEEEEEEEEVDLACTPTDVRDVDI
CDK4, sequence (Q16531 2-1140 limits assumed): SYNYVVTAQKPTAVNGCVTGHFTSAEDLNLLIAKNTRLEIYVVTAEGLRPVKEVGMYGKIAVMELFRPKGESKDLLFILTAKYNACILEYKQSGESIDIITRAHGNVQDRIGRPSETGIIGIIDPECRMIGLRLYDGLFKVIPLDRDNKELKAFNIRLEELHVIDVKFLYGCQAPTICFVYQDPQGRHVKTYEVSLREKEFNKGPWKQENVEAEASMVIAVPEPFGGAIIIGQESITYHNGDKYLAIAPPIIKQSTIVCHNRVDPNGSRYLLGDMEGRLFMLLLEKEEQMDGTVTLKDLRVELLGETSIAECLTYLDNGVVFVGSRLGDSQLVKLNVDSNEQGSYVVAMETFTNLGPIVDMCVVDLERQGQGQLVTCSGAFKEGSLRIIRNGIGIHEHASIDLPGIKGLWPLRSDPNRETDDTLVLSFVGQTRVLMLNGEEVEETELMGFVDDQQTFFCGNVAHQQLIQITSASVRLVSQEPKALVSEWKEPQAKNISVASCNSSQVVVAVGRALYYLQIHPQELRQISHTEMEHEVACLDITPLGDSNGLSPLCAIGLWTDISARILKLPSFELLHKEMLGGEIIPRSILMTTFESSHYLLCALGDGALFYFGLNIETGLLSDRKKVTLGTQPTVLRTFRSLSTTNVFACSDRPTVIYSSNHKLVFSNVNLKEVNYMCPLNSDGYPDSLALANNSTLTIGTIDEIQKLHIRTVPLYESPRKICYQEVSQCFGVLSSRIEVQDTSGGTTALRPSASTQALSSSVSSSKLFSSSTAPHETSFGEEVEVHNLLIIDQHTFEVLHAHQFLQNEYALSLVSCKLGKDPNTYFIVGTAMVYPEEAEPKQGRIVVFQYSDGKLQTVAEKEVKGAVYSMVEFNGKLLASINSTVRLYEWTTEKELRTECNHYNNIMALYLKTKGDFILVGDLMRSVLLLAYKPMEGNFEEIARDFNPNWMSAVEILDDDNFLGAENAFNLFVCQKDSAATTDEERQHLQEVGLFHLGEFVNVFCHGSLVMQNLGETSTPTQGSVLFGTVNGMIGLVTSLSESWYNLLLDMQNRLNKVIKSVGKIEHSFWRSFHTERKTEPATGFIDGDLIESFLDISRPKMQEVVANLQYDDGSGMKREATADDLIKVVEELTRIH

| SMILES | inhibition at 0.04 µM [%] | inhibition at 0.2 µM [%] |
| --- | --- | --- |
| CNc1ccc(C(=O)Nc2ccc(N(C)C)nn2)c(NC2CN(CCNC(=O)CN3CCN(c4ccc(Nc5ncc6c(C)c(C(C)=O)c(=O)n(C7CCCC7)c6n5)nc4)CC3)C2)n1 [CPD-107, 2-((1-(2-(2-(4-(6-((6-Acetyl-8-cyclopentyl-5-methyl-7-oxo-7,8-dihydropyrido[2,3-d]pyrimidin-2-yl)amino)pyridin-3-yl)piperazin-1-yl)acetamido)ethyl)azetidin-3-yl)amino)-N-(6-(dimethylamino)pyridazin-3-yl)-6-(methylamino)nicotinamide] | < 30 | < 30 |
| CNc1ccc(C(=O)Nc2ccc(OC)nn2)c(NCCCCCNC(=O)CN2CCN(c3ccc(Nc4ncc5c(C)c(C(C)=O)c(=O)n(C6CCCC6)c5n4)nc3)CC2)n1 [CPD-108, 2-((5-(2-(4-(6-((6-Acetyl-8-cyclopentyl-5-methyl-7-oxo-7,8-dihydropyrido[2,3-d]pyrimidin-2-yl)amino)pyridin-3-yl)piperazin-1-yl)acetamido)pentyl)amino)-N-(6-methoxypyridazin-3-yl)-6-(methylamino)nicotinamide] | 30 to 50 | 30 to 50 |
| CNc1ccc(C(=O)Nc2ccc(C)c(C)n2)c(NCCCCCNC(=O)CN2CCN(c3ccc(Nc4ncc5c(C)c(C(C)=O)c(=O)n(C6CCCC6)c5n4)nc3)CC2)n1 [CPD-109, 2-((5-(2-(4-(6-((6-Acetyl-8-cyclopentyl-5-methyl-7-oxo-7,8-dihydropyrido[2,3-d]pyrimidin-2-yl)amino)pyridin-3-yl)piperazin-1-yl)acetamido)pentyl)amino)-N-(5,6-dimethylpyridin-2-yl)-6-(methylamino)nicotinamide] | 50 to 80 | 50 to 80 |
| CNc1ccc(NC(=O)c2ccc(NC)nc2NCCCCCNC(=O)CN2CCN(c3ccc(Nc4ncc5c(C)c(C(C)=O)c(=O)n(C6CCCC6)c5n4)nc3)CC2)nn1 [CPD-110, 2-((5-(2-(4-(6-((6-Acetyl-8-cyclopentyl-5-methyl-7-oxo-7,8-dihydropyrido[2,3-d]pyrimidin-2-yl)amino)pyridin-3-yl)piperazin-1-yl)acetamido)pentyl)amino)-6-(methylamino)-N-(6-(methylamino)pyridazin-3-yl)nicotinamide] | < 30 | 50 to 80 |
| CNc1ccc(C(=O)Nc2ccc(C)c(C(C)C)n2)c(NCCCCCNC(=O)CN2CCN(c3ccc(Nc4ncc5c(C)c(C(C)=O)c(=O)n(C6CCCC6)c5n4)nc3)CC2)n1 [CPD-111, 2-((5-(2-(4-(6-((6-Acetyl-8-cyclopentyl-5-methyl-7-oxo-7,8-dihydropyrido[2,3-d]pyrimidin-2-yl)amino)pyridin-3-yl)piperazin-1-yl)acetamido)pentyl)amino)-N-(6-isopropyl-5-methylpyridin-2-yl)-6-(methylamino)nicotinamide] | < 30 | 50 to 80 |
| CNc1ccc(C(=O)Nc2ccc(Cl)c(C3CC3)n2)c(NCCCCCNC(=O)CN2CCN(c3ccc(Nc4ncc5c(C)c(C(C)=O)c(=O)n(C6CCCC6)c5n4)nc3)CC2)n1 [CPD-112, 2-((5-(2-(4-(6-((6-Acetyl-8-cyclopentyl-5-methyl-7-oxo-7,8-dihydropyrido[2,3-d]pyrimidin-2-yl)amino)pyridin-3-yl)piperazin-1-yl)acetamido)pentyl)amino)-N-(5-chloro-6-cyclopropylpyridin-2-yl)-6-(methylamino)nicotinamide] | < 30 | < 30 |
| CNc1ccc(C(=O)Nc2ccc(F)c(C3CC3)n2)c(NCCCCCNC(=O)CN2CCN(c3ccc(Nc4ncc5c(C)c(C(C)=O)c(=O)n(C6CCCC6)c5n4)nc3)CC2)n1 [CPD-113, 2-((5-(2-(4-(6-((6-Acetyl-8-cyclopentyl-5-methyl-7-oxo-7,8-dihydropyrido[2,3-d]pyrimidin-2-yl)amino)pyridin-3-yl)piperazin-1-yl)acetamido)pentyl)amino)-N-(6-cyclopropyl-5-fluoropyridin-2-yl)-6-(methylamino)nicotinamide] | 30 to 50 | 50 to 80 |
| CNc1ccc(C(=O)Nc2nc(C3CC3)ccc2F)c(NC2CC3(CC(NC(=O)CN4CCN(c5ccc(Nc6ncc7c(C)c(C(C)=O)c(=O)n(C8CCCC8)c7n6)nc5)CC4)C3)C2)n1 (centres unmarked) [CPD-114, 2-((6-(2-(4-(6-((6-Acetyl-8-cyclopentyl-5-methyl-7-oxo-7,8-dihydropyrido[2,3-d]pyrimidin-2-yl)amino)pyridin-3-yl)piperazin-1-yl)acetamido)spiro[3.3]heptan-2-yl)amino)-N-(6-cyclopropyl-3-fluoropyridin-2-yl)-6-(methylamino)nicotinamide] | < 30 | < 30 |
| CNc1ccc(C(=O)Nc2ccc(C)c(OC)n2)c(NCCCCCNC(=O)CN2CCN(c3ccc(Nc4ncc5c(C)c(C(C)=O)c(=O)n(C6CCCC6)c5n4)nc3)CC2)n1 [CPD-116, 2-((5-(2-(4-(6-((6-Acetyl-8-cyclopentyl-5-methyl-7-oxo-7,8-dihydropyrido[2,3-d]pyrimidin-2-yl)amino)pyridin-3-yl)piperazin-1-yl)acetamido)pentyl)amino)-N-(6-methoxy-5-methylpyridin-2-yl)-6-(methylamino)nicotinamide] | 30 to 50 | 30 to 50 |
| CNc1ccc(C(=O)Nc2ccc(N(C)C)nn2)c(NC2CC3(C2)CN(C(=O)C(C)CN2CCN(c4ccc(Nc5ncc6c(C)c(C(C)=O)c(=O)n(C7CCCC7)c6n5)nc4)CC2)C3)n1 (centres unmarked) [CPD-117, 2-((2-(3-(4-(6-((6-Acetyl-8-cyclopentyl-5-methyl-7-oxo-7,8-dihydropyrido[2,3-d]pyrimidin-2-yl)amino)pyridin-3-yl)piperazin-1-yl)-2-methylpropanoyl)-2-azaspiro[3.3]heptan-6-yl)amino)-N-(6-(dimethylamino)pyridazin-3-yl)-6-(methylamino)nicotinamide] | 50 to 80 | 50 to 80 |
| CNc1ccc(C(=O)Nc2ccc(N(C)C)nn2)c(NC2CC3(C2)CN(C(=O)C(C)(C)CN2CCN(c4ccc(Nc5ncc6c(C)c(C(C)=O)c(=O)n(C7CCCC7)c6n5)nc4)CC2)C3)n1 [CPD-118, 2-((2-(3-(4-(6-((6-Acetyl-8-cyclopentyl-5-methyl-7-oxo-7,8-dihydropyrido[2,3-d]pyrimidin-2-yl)amino)pyridin-3-yl)piperazin-1-yl)-2,2-dimethylpropanoyl)-2-azaspiro[3.3]heptan-6-yl)amino)-N-(6-(dimethylamino)pyridazin-3-yl)-6-(methylamino)nicotinamide] | 50 to 80 | 50 to 80 |

Results, then the compound that gave them:

| inhibition at 0.04 µM [%] | inhibition at 0.2 µM [%] | SMILES |
| --- | --- | --- |
| < 30 | 30 to 50 | CC(=O)c1c(C)c2cnc(Nc3ccc(N4CCN(CC(=O)NC5CC6(C5)CC(Nc5nc(C(C)C)ccc5C(=O)Nc5cccc(C7CC7)n5)C6)CC4)cn3)nc2n(C2CCCC2)c1=O (centres unmarked) [CPD-119, 2-((6-(2-(4-(6-((6-Acetyl-8-cyclopentyl-5-methyl-7-oxo-7,8-dihydropyrido[2,3-d]pyrimidin-2-yl)amino)pyridin-3-yl)piperazin-1-yl)acetamido)spiro[3.3]heptan-2-yl)amino)-N-(6-cyclopropylpyridin-2-yl)-6-isopropylnicotinamide] |
| < 30 | 30 to 50 | CC(=O)c1c(C)c2cnc(Nc3ccc(N4CCN(CC(=O)NC5CC6(C5)CC(Nc5nc(C)ccc5C(=O)Nc5cccc(C7CC7)n5)C6)CC4)cn3)nc2n(C2CCCC2)c1=O (centres unmarked) [CPD-120, 2-((6-(2-(4-(6-((6-Acetyl-8-cyclopentyl-5-methyl-7-oxo-7,8-dihydropyrido[2,3-d]pyrimidin-2-yl)amino)pyridin-3-yl)piperazin-1-yl)acetamido)spiro[3.3]heptan-2-yl)amino)-N-(6-cyclopropylpyridin-2-yl)-6-methylnicotinamide] |
| < 30 | 30 to 50 | CC(=O)c1c(C)c2cnc(Nc3ccc(N4CCN(CC(=O)NC5CC6(C5)CC(Nc5nc(C(F)(F)F)ccc5C(=O)Nc5cccc(C7CC7)n5)C6)CC4)cn3)nc2n(C2CCCC2)c1=O (centres unmarked) [CPD-121, 2-((6-(2-(4-(6-((6-Acetyl-8-cyclopentyl-5-methyl-7-oxo-7,8-dihydropyrido[2,3-d]pyrimidin-2-yl)amino)pyridin-3-yl)piperazin-1-yl)acetamido)spiro[3.3]heptan-2-yl)amino)-N-(6-cyclopropylpyridin-2-yl)-6-(trifluoromethyl)nicotinamide] |
| 30 to 50 | 50 to 80 | CNc1ccc(C(=O)Nc2cccc(=O)[nH]2)c(NC2CC3(CC(NC(=O)CN4CCN(c5ccc(Nc6ncc7c(C)c(C(C)=O)c(=O)n(C8CCCC8)c7n6)nc5)CC4)C3)C2)n1 (centres unmarked) [CPD-122, 2-((6-(2-(4-(6-((6-Acetyl-8-cyclopentyl-5-methyl-7-oxo-7,8-dihydropyrido[2,3-d]pyrimidin-2-yl)amino)pyridin-3-yl)piperazin-1-yl)acetamido)spiro[3.3]heptan-2-yl)amino)-6-(methylamino)-N-(6-oxo-1,6-dihydropyridin-2-yl)nicotinamide] |
| < 30 | 50 to 80 | CNc1ccc(C(=O)Nc2ccc(C)c(=O)[nH]2)c(NCCCCCNC(=O)CN2CCN(c3ccc(Nc4ncc5c(C)c(C(C)=O)c(=O)n(C6CCCC6)c5n4)nc3)CC2)n1 [CPD-123, 2-((5-(2-(4-(6-((6-Acetyl-8-cyclopentyl-5-methyl-7-oxo-7,8-dihydropyrido[2,3-d]pyrimidin-2-yl)amino)pyridin-3-yl)piperazin-1-yl)acetamido)pentyl)amino)-N-(5-methyl-6-oxo-1,6-dihydropyridin-2-yl)-6-(methylamino)nicotinamide] |
